Data as given in patent US11166958B2, “4-pyrazin-2-ylmethyl-morpholine derivatives and the use thereof as medicament” (Boehringer Ingelheim International GmbH, priority 2018, dated 2021).

What was measured:
[1] = Metabolic stability in pooled human liver microsomes; format: in vitro ADME; details: pH 7.6, 1 μM compound, 1 mg/mL microsomal protein, 37° C., NADPH, read-out: Half-life − t½ human liver microsomes
Source text: Stability in human liver microsomes refers to the susceptibility of compounds to biotransformation in the context of selecting and/or designing drugs with favorable pharmacokinetic properties. The primary site of metabolism for many drugs is the liver. Human liver microsomes contain the cytochrome P450s (CYPs), and thus represent a model system for studying drug metabolism in vitro Enhanced stability in human liver microsomes is associated with several advantages, including increased bioavailability and adequate half-life, which can enable lower and less frequent dosing of patients.
The metabolic degradation of the test compound was assayed at 37° C. with pooled human liver microsomes. The final incubation volume of 60 μl per time point contains TRIS buffer pH 7.6 at room temperature (0.1 M), magnesium chloride (5 mM aqueous solution), microsomal protein (1 mg/mL for human) and the test compound at a final concentration of 1 μM. Following a short preincubation period at 37° C., the reactions were initiated by addition of betanicotinamide adenine dinucleotide phosphate, reduced form (NADPH, 1 mM), and terminated by transferring an aliquot into acetonitril after different time points. After centrifugation (10000 g, 5 min), an aliquot of the supernatant was assayed by HPLC-MS/MS as described above for the MDCK assay P-gp for the amount of parent compound. The half-life was determined by the slope of the semi-logarithmic plot of the concentration-time profile.

Nav1.6 channel = Nav1.6 channel (Homo sapiens (Human), UniProt Q9UQD0); experiment: Nav1.6 inhibition, IonWorks Quattro electrophysiology; format: cell-based; details: for inhibition at 1 µM / inhibition at 5 µM: normalized to vehicle (0%) and maximal inhibition control (100%)
Sequence of Nav1.6 channel (Q9UQD0 whole entry): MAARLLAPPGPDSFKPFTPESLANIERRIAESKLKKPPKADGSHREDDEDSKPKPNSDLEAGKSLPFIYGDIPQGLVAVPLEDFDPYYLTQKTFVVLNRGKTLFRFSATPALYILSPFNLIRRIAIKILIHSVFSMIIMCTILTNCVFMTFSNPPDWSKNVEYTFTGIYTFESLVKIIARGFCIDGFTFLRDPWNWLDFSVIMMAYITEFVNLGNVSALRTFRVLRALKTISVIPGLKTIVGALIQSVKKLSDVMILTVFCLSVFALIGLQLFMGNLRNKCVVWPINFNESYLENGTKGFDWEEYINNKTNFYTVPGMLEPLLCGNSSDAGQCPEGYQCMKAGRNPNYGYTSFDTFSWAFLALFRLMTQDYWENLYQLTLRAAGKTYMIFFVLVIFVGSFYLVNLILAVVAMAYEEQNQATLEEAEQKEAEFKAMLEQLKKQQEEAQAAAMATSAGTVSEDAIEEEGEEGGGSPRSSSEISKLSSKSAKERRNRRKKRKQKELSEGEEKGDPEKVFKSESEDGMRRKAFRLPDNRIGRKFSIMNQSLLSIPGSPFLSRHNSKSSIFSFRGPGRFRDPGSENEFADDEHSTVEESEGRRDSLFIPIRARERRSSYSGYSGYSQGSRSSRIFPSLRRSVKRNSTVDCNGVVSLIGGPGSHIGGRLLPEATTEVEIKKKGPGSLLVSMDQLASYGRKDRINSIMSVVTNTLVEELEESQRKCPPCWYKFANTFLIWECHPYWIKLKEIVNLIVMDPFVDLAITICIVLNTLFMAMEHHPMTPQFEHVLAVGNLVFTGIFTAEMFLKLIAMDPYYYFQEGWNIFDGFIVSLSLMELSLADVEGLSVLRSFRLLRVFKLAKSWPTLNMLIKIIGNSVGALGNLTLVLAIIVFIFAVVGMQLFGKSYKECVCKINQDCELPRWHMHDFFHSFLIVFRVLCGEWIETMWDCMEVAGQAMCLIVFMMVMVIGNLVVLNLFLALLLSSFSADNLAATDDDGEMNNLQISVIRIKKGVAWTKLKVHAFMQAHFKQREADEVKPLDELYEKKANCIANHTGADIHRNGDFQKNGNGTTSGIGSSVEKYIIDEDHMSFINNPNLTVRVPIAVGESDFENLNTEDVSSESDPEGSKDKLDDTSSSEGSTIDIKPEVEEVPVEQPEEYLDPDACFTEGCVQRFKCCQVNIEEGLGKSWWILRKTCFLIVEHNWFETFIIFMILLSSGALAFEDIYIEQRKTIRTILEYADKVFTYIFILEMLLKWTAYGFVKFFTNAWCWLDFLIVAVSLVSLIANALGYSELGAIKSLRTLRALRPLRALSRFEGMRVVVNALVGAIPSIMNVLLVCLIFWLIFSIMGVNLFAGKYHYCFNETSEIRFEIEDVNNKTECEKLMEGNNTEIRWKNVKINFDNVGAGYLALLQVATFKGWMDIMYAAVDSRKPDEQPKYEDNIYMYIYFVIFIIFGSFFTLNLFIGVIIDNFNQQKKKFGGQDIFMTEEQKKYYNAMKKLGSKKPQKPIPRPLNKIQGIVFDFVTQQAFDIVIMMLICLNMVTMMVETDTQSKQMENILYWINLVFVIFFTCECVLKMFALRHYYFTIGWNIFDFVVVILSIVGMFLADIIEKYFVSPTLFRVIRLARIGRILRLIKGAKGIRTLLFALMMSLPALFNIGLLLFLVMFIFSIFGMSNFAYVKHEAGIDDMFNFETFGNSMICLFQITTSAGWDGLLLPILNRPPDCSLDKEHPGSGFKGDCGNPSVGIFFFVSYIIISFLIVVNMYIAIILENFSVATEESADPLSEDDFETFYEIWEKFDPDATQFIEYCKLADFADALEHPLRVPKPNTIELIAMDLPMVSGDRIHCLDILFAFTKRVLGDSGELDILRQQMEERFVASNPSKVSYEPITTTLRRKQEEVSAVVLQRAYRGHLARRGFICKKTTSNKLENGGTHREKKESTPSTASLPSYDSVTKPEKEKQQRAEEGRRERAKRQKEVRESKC
Method: IonWorks Quattro electrophysiological platform
The compounds were prepared in DMSO at 300× the final assay concentrations of 1 and 5 μM.
The 300× DMSO stock solutions were transferred into assay plates where 2 μl per well of each 300× stock solution were placed. All assay plates were stored at −80° C. until the day of assay.
On the day of the assay, the appropriate assay plate was thawed at room temperature, centrifuged, and 198 μl of external recording solution was added and mixed thoroughly. This provided a 1:100 dilution. A further 1:3 dilution occurred upon addition to the cells in the IonWorks Quattro electrophysiological platform, giving a 1:300 dilution in total. On each assay plate, at least 8 wells were reserved for vehicle control (0.3% DMSO) and at least 8 wells for each positive control specific to the cell line tested. The positive controls were tested at a maximal blocking and an approximate IC50 concentration. As positive control Lidocaine at concentrations of 30 and 1000 μM was used.
The solutions for recording Nav1.6 currents were as follows:
Amphotericin B was used to obtain electrical access to the cell interior at a final concentration of 200 μg/ml in internal recording solution.
State-dependent inhibition: Sodium channels when held at depolarized potential or long test pulse, the channels open and inactivate and then stay inactivated until the membrane potential is stepped back to hyperpolarized potentials, when the inactivated channels recover from inactivation into closed state.
Cells were held at −120 mV. In order to completely inactivate the sodium channels (pulse 1), the cells were pulsed to +0 mV for 2500 ms and stepped back to −120 mV for 10 ms (to completely recover from inactivation, however channels that had drugs bound to them will not recover from inactivation) before stepping to +0 mV for 20 ms (pulse 2).
Assay Control Results Both the positive and vehicle control data associated with each cell line assayed are shown below as an example. The mean is shown for each positive and negative control as solid symbol with the total number of individual well replicates given next to the solid symbol. In addition, the individual data of each well are shown on the graph as open symbols so that the variation about the mean value can be readily assessed.
Shown below are the assay controls for the Nav1.6 IonWorks Quattro assay.
Tables 3 and 4 show the normalized percentage inhibition of Nav1.6 channel. […] (see also the figure Assay Control Results above).

Row | half-life at 1 µM [1] | inhibition at 1 µM (Nav1.6 channel) | inhibition at 5 µM (Nav1.6 channel) | inhibition of the Nav 1.6 channel (Nav1.6 channel; at 5 μM) | Structure (SMILES)
1 | > 2.17 h | -5.8% | -7% | – | CCNC(=O)[C@@H]1CN(Cc2cnc(Oc3ccc(C)cc3F)cn2)CCO1 [Example 31]
2 | > 2.17 h | 0% | 4.6% | – | CNC(=O)[C@@H]1CN(Cc2cnc(Oc3ccccc3F)cn2)CCO1 [Example 9]
3 | > 2.17 h | -9% | 0.5% | – | CNC(=O)[C@@H]1CN(Cc2cnc(Oc3ccc(F)cc3)cn2)CCO1 [Example 1]
4 | > 2.17 h | -3.9% | 3.7% | – | CNC(=O)[C@@H]1CN(Cc2cnc(Oc3ccc(Cl)cc3F)cn2)CCO1 [Example 5]
5 | > 2.17 h | -9% | -15% | not showing any significant inhibition | CNC(=O)[C@@H]1CN(Cc2cnc(Oc3ccc(Cl)cc3)cn2)CCO1 [Example 7]
6 | > 2.17 h | -10.5% | -6.6% | – | CCNC(=O)[C@@H]1CN(Cc2cnc(Oc3ccccc3Cl)cn2)CCO1 [Example 33]
7 | > 2.17 h | 4.6% | 6.8% | – | CNC(=O)[C@@H]1CN(Cc2cnc(Oc3ccc(C)cc3)cn2)CCO1 [Example 3]
8 | > 2.17 h | -4.4% | -4% | – | CNC(=O)[C@@H]1CN(Cc2cnc(Oc3ccc(C)cc3F)cn2)CCO1 [Example 2]
9 | > 2.17 h | -13.4% | -9.4% | – | CCNC(=O)[C@@H]1CN(Cc2cnc(Oc3ccc(F)cc3F)cn2)CCO1 [Example 30]
10 | > 2.17 h | -5% | -10% | – | CNC(=O)[C@@H]1CN(Cc2cnc(Oc3ccccc3Cl)cn2)CCO1 [Example 18]
11 | > 2.17 h | 3.4% | 5% | – | CNC(=O)[C@@H]1CN(Cc2cnc(Oc3ccc(C)cc3C)cn2)CCO1 [Example 4]
12 | > 2.17 h | 3% | 1.1% | – | CNC(=O)[C@@H]1CN(Cc2cnc(Oc3ccc(F)cc3C)cn2)CCO1 [Example 8]
13 | > 2.17 h | 5.6% | 0.2% | – | CNC(=O)[C@@H]1CN(Cc2cnc(Oc3ccc(F)cc3F)cn2)CCO1 [Example 6]
